We go through six molecules from patent US9771377B2, “Synthesis of FR901464 and analogs with antitumor activity” (University of Pittsburgh—Of the Commonwealth System of …, priority 2012, dated 2017).

The term GI50 denotes the concentration giving 50% growth inhibition.

The test system of one experiment is MDA-MB-231. The experiment in a line: Growth inhibition assay (MTS), MDA-MB-231. The experiment is classed as cell-based. To be noted: 3 to 5 days. Here is the method: (§1) Meayamycin, 4-TEGylated meayamycin, and 4-TEGylated FR901464 (right fragment) compounds were produced using the above protocols. The compounds were dissolved in dimethyl sulfoxide (DMSO) as 10 mM stocks and stored at −20° C. Prior to assays being performed, aliquots were thawed at room temperature and dilutions were prepared in RPMI 1640 medium containing 2% DMSO at 2×the desired concentration prior to addition to the cells.
(§2) The cells were grown at 37° C. in an atmosphere containing 5% carbon dioxide in corning cell culture flasks (25 cm^2) in RPMI 1640 cell culture medium containing 10% fetal bovine serum, 1% Penicillin/Streptomycin, and 1% L-Glutamine.
(§3) Cells were plated in 96 well plates at an initial density of 2,000 cells per well in 100 μL of medium and were incubated for 24 hours prior to compound addition. […] The compound was added to the cells at 2× the desired concentration in 100 μL cell culture medium. The cells were then incubated for an additional 3 to 5 days. Cell proliferation was measured using a commercial MTS solution (20 μL per well). The absorbance (at 490 nm and 630 nm) was measured by a Spectromax M2 plate reader (Molecular Devices). Each concentration treatment was done in quadruplets and the final numbers were averaged.

Another experiment concerns HCT116. Briefly: Growth inhibition assay (MTS), HCT116. The experiment is classed as cell-based. Here is the method:
as §1, §2, §3

The subject of a further experiment is HEK-293-II. Briefly: Growth inhibition assay (MTS), HEK-293-II. The experiment is classed as cell-based. Here is the method: as §1, §2, §3
The next experiment deals with PCI 13. Briefly: Growth inhibition assay (MTS), PCI 13. It is filed as cell-based. Particulars: 3 to 5 days. Here is the method:
as §1, §2, §3

The next experiment relates to cancer cell. The experiment in a line: Cancer cell antiproliferative activity (background statement). The experiment is classed as cell-based. From the text:
This pharmacological profile for FR901464 has drawn considerable interest, focusing on its potential as an anticancer agent.

The next experiment concerns JHU 012. Briefly: Growth inhibition assay (MTS), JHU 012. The experiment is classed as cell-based. Particulars: 3 to 5 days. Here is the method: as §1, §2, §3
For another experiment, the system named is A549. The experiment in a line: Growth inhibition assay (MTS), A549. It is filed as cell-based. Particulars: 3 to 5 days. Here is the method:
as §1, §2, §3

The subject of the next experiment is MCF-7. Briefly: Growth inhibition assay (MTS), MCF-7. The experiment is classed as cell-based. As to the method: as §1, §2
Cells were plated in 96 well plates at an initial density of 2,000 cells per well in 100 μL of medium and were incubated for 24 hours prior to compound addition. Serial two-fold dilutions were used in this experiment from 100 nM to 0.000191 nM. The compound was added to the cells at 2× the desired concentration in 100 μL cell culture medium. The cells were then incubated for an additional 3 to 5 days. Cell proliferation was measured using a commercial MTS solution (20 μL per well). The absorbance (at 490 nm and 630 nm) was measured by a Spectromax M2 plate reader (Molecular Devices). Each concentration treatment was done in quadruplets and the final numbers were averaged.

The subject of experiment [1] is pre-mRNA splicing in HEK-293-II cells. Briefly: HEK-293-II cell-based splicing inhibition assay (luciferase, RT-PCR). As to the method:
Splicing inhibition by PEGylated meayamycin was evaluated using the published HEK-293-II cell-based assay. In short, luciferase expression increases when pre-mRNA splicing is inhibited. Yang Gao et al., published online at Chem Bio Chem. Nov. 22, 2012 (DOI: 10.1002/cbic.201200558). […] (FIG. 1). Pre-mRNA splicing inhibition by 4-TEGylated meayamycin was examined in HEK-293-II cells over 72 h. The splicing inhibition, as manifested by the luciferase activity, in the 4-TEGylated meayamycin-treated cells persisted for 48 h, which was different from that in the meayamycin-treated cells. (FIG. 2).

The next experiment has as its system MCF-7 cells. To be noted: MCF-7 cells at 20 nM; cited from earlier work.
The subject of the next experiment is tumor. Particulars: mouse model; cited from earlier work.
Setting [2] is: HEK-293-II, 3 to 5 days, MTS, read-out: GI50.

pIC50: −log10 of the molar value. Read-outs that look alike come from different tables or passages of the source.

Regarding `C=C[C@H]1OC(C)(C)C[C@@]2(CO2)[C@@H]1OCCOCCOCCOCCN=[N+]=[N-]` [4-TEGylated FR901464 (right fragment)], the concentration for 50% growth inhibition (GI50) with MDA-MB-231 (Homo sapiens) came to 1500 nM; with HCT116 (Homo sapiens, HCT-116, HCT116, 3 to 5 days, MTS, read-out: GI50), 2200 nM; in the experiment on HEK-293-II (setting [2]), 8900 nM; with PCI 13 it was 3700 nM; in the experiment on JHU 012, 2000 nM; in the experiment on A549 (Homo sapiens), 2200 nM. In addition, the pIC50 in the experiment with HCT116 (Homo sapiens, HCT-116, read-out: GI150, inhibition of HCT-116 proliferation) was 5.82. Moreover, in the experiment with cancer cell, the “cancer cell antiproliferative activity” value is “high cancer cell antiproliferative activity”.
As for `CC(=O)O[C@@H](C)/C=C\C(=O)N[C@@H]1C[C@H](C)[C@H](C/C=C(C)/C=C/[C@H]2OC(C)(C)C[C@@]3(CO3)[C@@H]2OCCOCCOCCOCCN=[N+]=[N-])O[C@@H]1C` [4-TEGylated meayamycin], the GI50 in the experiment with HCT116 (Homo sapiens, HCT-116) turned out to be 0.1 nM; with MCF-7 (Homo sapiens, MCF7, 3 to 5 days), 2.4 nM; with HEK-293-II, 46 nM. Besides, the “time the splicing inhibition (luciferase activity) persisted” value in experiment [1] (HEK-293-II cells examined over 72 h, FIG. 2) was found to be 48 h. Moreover, in experiment [1] (HEK-293-II cells, FIG. 1), the “RT-PCR analysis of total RNA: pre-mRNA splicing” value is recorded as “inhibited pre-mRNA splicing”. Further, the pIC50 in experiment [1] (HEK-293-II, luciferase, 16-h treatment, average of three independent experiments, read-out: IC150, inhibitory activity towards pre-mRNA splicing) was 8.62.
On to `CC(/C=C/[C@H]1OC(C)(C)C[C@@]2(CO2)[C@@H]1CCCOCCOCCOCCN=[N+]=[N-])=C\C[C@@H]1O[C@H](C)C(NC(=O)/C=C\[C@H](C)OC(=O)N2CCOCC2)C[C@@H]1C` (stereo partly shown) [4-TEGylated-FR901464 analog], for which the “cancer cell antiproliferative activity” value in the experiment with cancer cell is listed as “high cancer cell antiproliferative activity”.
Take `CC(=O)O[C@@H](C)/C=C\C(=O)N[C@@H]1C[C@H](C)[C@H](C/C=C(C)/C=C/[C@H]2O[C@](C)(O)C[C@@]3(CO3)[C@@H]2O)O[C@@H]1C` [FR901464]: in the experiment with MCF-7 cells, the “mRNA levels of p53, p21, c-myc, and E2F-1” value is given as “lowers the mRNA levels”. Moreover, the “concentrations at which antitumor activity is exhibited” value with tumor was 0.056 to 0.18 mg/kg.
Turning to `CC(=O)O[C@@H](C)/C=C\C(=O)N[C@@H]1C[C@H](C)[C@H](C/C=C(C)/C=C/[C@H]2OC(C)(C)C[C@@]3(CO3)[C@@H]2O)O[C@@H]1C` [meayamycin, reference compound], the GI50 is 0.07 nM in the experiment with MDA-MB-231; 0.038 nM with HCT116 (HCT116, 3 to 5 days, MTS, read-out: GI50); 0.8 nM in the experiment on MCF-7 (3 to 5 days); 7.8 nM with HEK-293-II (setting [2]); 4.8 nM in the experiment with PCI 13; 4.7 nM with JHU 012. For the same molecule, in the experiment on A549, halving of growth (GI50) required 0.26 nM.
In the case of `C=C[C@H]1OC(C)(C)C[C@@]2(CO2)[C@@H]1O` [right fragment without PEGylation, (3R,4R,5R)-7,7-dimethyl-5-vinyl-1,6-dioxaspiro[2.5]octan-4-ol], the antiproliferation activity entry with HCT116 (even at 200 μM) is listed as “no antiproliferation activity”.
